These are literature values, as cited in patent publication US20250319024A1, “TARGETED NANOPARTICLES AND THEIR USES RELATED TO INFECTIOUS DISEASE” (priority 2021, published 2025).

Each structure is given as a SMILES string. Read-outs that look alike come from different tables or passages of the source.

The data set deals with RIF sensitive strains / resistant strains. Particulars: cited from earlier work.

For the molecule `CO[C@H]1/C=C/O[C@@]2(C)Oc3c(C)c(O)c4c(O)c(c(/C=N/N5CCN(C)CC5)c(O)c4c3C2=O)NC(=O)/C(C)=C\C=C\[C@H](C)[C@H](O)[C@@H](C)[C@@H](O)[C@@H](C)[C@H](OC(C)=O)[C@@H]1C` [free RIF, rifampin], the ED95 entry is, setting by setting: (RIF sensitive strains) “below 0.5 μg/mL”; (resistant strains) “above 2 μg/mL”.
